# Assay results reported in patent publication US7125568B2, “Lipophilic drug compositions” (priority 2001, dated 2006).
# Read-outs that look alike come from different tables or passages of the source.
# Tests used:
# HSV = assay: Plaque reduction assay, HSV in human embryonic fibroblast cells; format: cell-based, Herpes simplex virus
# Protocol: (§1) The drugs, NTZ and BA 3540, were made soluble at 10 mg/mL in dimethylsulfoxide and then diluted in media to 50 μg/mL, 5 μg/mL, 2.5 μg/mL, and 1.5 μg/mL. Human embryonic fibroblast cells were propagated in minimal essential media and supplemented with 10% fetal bovine serum. Cells were pre-treated with the two drugs at the 4 specified concentrations plus a zero control for 45 minutes. The plates were each infected with 300–400 viral particles of either HSV or HCMV for 1 hour. Drug free media was added to each plate and incubation continued for 3 days to propagate virus. At the end of three days, the supernatant from each of the plates was removed for plaque reduction assays.
# [1] = Solubility and heat stability of the bulk drug; format: physicochemical
# Protocol: In a typical example, an equimolar ratio (approximately 2.5 moles) of lauric acid is activated with dicyclohexyl-carbodiimide (DCC) in 500 mL of dimethylformamide. After 90 minutes, the insoluble dicyclohexylurea formed is removed by vacuum filtration. The activated lauric acid solution is then added in approximately 1:1 ratio of the nucleophile 2-amino-5 nitro-thiazole in 600 mL of methylene chloride, 60 ml of pyridine and made up to 3.5 liters with dimethylformamide. The reaction is allowed to proceed for 40–48 hours with shaking, stirring or heating at 50° C. The product formed is obtained and purified by precipitation and recrystallization in methanol and or acetone. This synthesis scheme is depicted as 2-lauramide-5-nitrothioazole and is a nice needle shaped microcrystal. […] To promote complete dissolution, the drug has to be lightly heated.
# fungal growth = assay: Topical treatment of yellow fungal toes; format: in vivo, patients; conditions: 3% weight percent gel, 5 consecutive days then weekly for 4 weeks, after two weeks
# Protocol: In the present study, patients suffering from yellow fungal toes were treated with a 3% weight percent BA3540 in a gel formulation (gel comprises propylene glycol and 0.8% Carbopol® Gel) for 5 consecutive days by topical application of the gel formulation on the surrounding nail cuticle area, followed by weekly treatment with the gel formulation for the next 4 weeks. The thickening of the nail caused by fungal growth disappeared after two weeks, and several months later a healthy nail began to appear behind the thick nail.
# HCMV = assay: Plaque reduction assay, HCMV in human embryonic fibroblast cells; format: cell-based, Human Cytomalovirus
# Protocol: as §1
# coccidia = assay: Treatment of coccidiosis in chickens (fecal float oocyst levels)
# Protocol: An initial trial involving 120 broilers (4 week old chickens) for the treatment of coccidiosis was made. Three treatment groups were used: (1) control, (2) low dose of 10 mg BA 3540/kg treatment, and (3) high dose at 50 mg BA 3540/kg treatment. The broilers were separated into six pens, […]. Fecal collection was begun to check for the presence of coccidian. The treatments were then assigned and the trial started. The treatment was added to a mash diet and fed adlib for seven days. At the end of the treatment period, new fecal collections for each treatment group were analyzed for the presence of coccidia.
# Two fecal samples were taken from each pen and a fecal float was done to check oocyst levels. Oocyst levels are considered to determine the adult coccidian present in an intestinal tract.
# A confirmatory trial was conducted with 10 seven-week-old Arbor Acres broilers. The birds were divided into two groups: control and 50 mg/kg treatment groups. The two set of cages were off the floor to prevent any potential contamination. The trial was monitored for four days and fecal floats for oocyte population were used to determine efficacy. Two fecal samples were collected from each cage.
# Sarcocystis neurona = test system: Sarcocystis neurona
# Excerpt: The new drug was encapsulated as in Example 4 with 27% palmitic acid and 73% of Sterotex®.
# Case 1: “Chris” is a 7 year old quarter horse gelding. […] Chris was given daily oral treatment of the new paste formulation containing lipid encapsulated 2-lauramide-5-nitrothiazole for a total of 28 dosings with 25 gm/syringe. (On day 22 to 28, the drug was not given and then resumed medication in the following week).
# Case 2: “Brooke” is an 18-year-old thoroughbred mare. […] Again the horse was given daily oral treatments with the current dose of a typical 1000 lb horse at about 50 mg/Kg body weigh or 25 gm/day.
# Case 3: “Foundation Man” is a 22-year-old Appaloosa gelding. […] Foundation Man was given daily oral treatments with the same amount of medication for 28 days.
# [2] = Degradation of acetylbenzamide nitrothiazole in 0.1 M NaCO3 (optical density); format: physicochemical; conditions: 0.1 M NaCO3, at 3 hours
# Excerpt: (§2) Acetylbenzamide nitrothiazole, otherwise known as NTZ, is an antibiotic drug useful as a treatment for protozoan parasites. […] Acetylbenzamide nitrothiazole encapsulated by Sterotex® as described in Example 1 is hydrophobic and remains afloat on the water surface.
# The kinetic of degradation of acetylbenzamnide nitrothiazole in 0.1 M NaCO3 is similar to the aspirin curve of FIG. 1. […] 1, while the free drug has an optical density of 1.9. This example also illustrates the stabilizing effect of lipid encapsulation.
# [3] = Solubility and stability in water; format: physicochemical
# Excerpt: as §2
# [4] = cited from earlier work
# [5] = free form; cited from earlier work
# [6] = Degradation of aspirin in sodium carbonate, monitored by UV spectrophotometry; format: physicochemical; conditions: 0.1 M NaCO3 (10 pH), at 27 hours
# Excerpt: In this example, aspirin is encapsulated in Sterotex® using the method described in Example 1. In aspirin, the deacetylated species is salicylic acid, which has a characteristic absorbency at 296 nm. The comparison of drug stability of Sterotex®/aspirin vs. aspirin was made in 0.1 M NaCO3 (10 pH) and the kinetics of degradation monitored by UV spectrophotometry. In FIG. 1, the appearance of salicylic acid is compared between aspirin encapsulated in Sterotex® and free aspirin. Aspirin slowly dissolves and is hydrolyzed to salicylic acid in a basic solution of 0.1 M NaCO3. At 27 hours, it is roughly 38% hydrolyzed. By contrast, aspirin encapsulated in Sterotex® is quite stable even at 27 hours and is only less than 2% degraded. This example illustrates the increase in drug stability provided by encapsulation in a lipid component.
structure (smiles),measurement,setting,value
"CCCCCCCCCCCC(=O)Nc1ncc([N+](=O)[O-])s1 [BA 3540, 2-lauramide-5-nitrothiazole]",therapeutic range,HSV,5 to 10 µg/mL
same,plaques,"HSV; 1.5 μg/mL, control 110 plaques",90
same,solubility in methanol,[1]; bulk drug,sparingly soluble
same,solubility in methylene chloride and dimethylforamide,[1]; bulk drug,more soluble
same,solubility in water,[1]; bulk drug,insoluble
same,stability on heating in organic solvents,"[1]; methanol, acetone, methylene chloride, dimethylforamide at 60–80° C.",no appreciable detriment
same,thickening of the nail caused by fungal growth,fungal growth,disappeared
same,projected therapeutic range,HCMV,1.5 to 2.5 µg/mL
same,plaques,"HCMV; 1.5 μg/mL, controls 300 plaques",3
same,plaques,"HCMV; 2.5 μg/mL, controls 300 plaques",1
same,plaques,HCMV; higher drug concentrations (5 and 50 μg/mL),none
same,mortality,"coccidia; broilers, 10 and 50 mg/kg in diet",no mortality
same,oocytes in fecal samples,"coccidia; confirmatory trial, 50 mg/kg, four days, seven-week-old broilers",no visible oocytes
same,samples with detectable oocyst,"coccidia; high dose group 50 mg/kg in mash diet, initial trial",1 of 4
same,amount of oocyst,"coccidia; low treatment group 10 mg/kg in mash diet, initial trial",about the same as the control group
same,EPM grade after treatment,"Sarcocystis neurona; Case 1 Chris, from Grade 3, lipid encapsulated paste, oral daily, 28 dosings, 25 gm/syringe",0/1
same,EPM grade after treatment,"Sarcocystis neurona; Case 2 Brooke, started at Grade 2, day 29, about 50 mg/Kg or 25 gm/day oral",2 grade
same,EPM grade after treatment,"Sarcocystis neurona; Case 3 Foundation Man, from Grade 2/3, 28 day oral treatment",0 Grade
same,recovery from EPM,"Sarcocystis neurona; all three horses, owners' reports, day 84",fully recovered
same,side effects,"Sarcocystis neurona; in vivo, po",no side effects
"CC(=O)Oc1ccccc1C(=O)Nc1ncc([N+](=O)[O-])s1 [NTZ, Nitazoxanide]",plaques,"HCMV; all four drug concentrations (1.5, 2.5, 5, 50 μg/mL), control 310 plaques",no viral plaques
same,optical density,[2],1.9
same,stability in water,"[3]; standing in water, room temperature",converted to the deacetylated counterpart
same,solubility in water,[3]; water,sparingly soluble
same,expiry of bulk drug,[4],two
same,adverse effects in horses,[5],"causes anorexia, depression and diathermia or loose stool"
CC(=O)Oc1ccccc1C(=O)O [aspirin],hydrolyzed to salicylic acid (degraded),[6],roughly 38%
